Results on two compounds are retold here after patent publication US11141406B2, “Pharmaceutical compounds” (REVIRAL LIMITED, priority 2017, dated 2021).

The structures appear in SMILES notation. pIC50: −log10 of the molar value.

Holding throughout (format): cell-based
The test system of test [1] is RSV fusion (HEK293T cells transfected with pCDNA3.1_A2_F). Nature of the test: RSV fusion assay. To be noted: human respiratory syncytial virus, HEK-293T, read-out: RSV Fusion Assay (n ≥ 2) IC50. On the procedure:
HEK293T ((ECACC 12022001) cells were cultured in T75 culture flasks in Dulbecco's medium (DMEM) containing 10% Foetal Bovine serum (FBS), 50 units per mL Penicillin and 50 μg/mL Streptomycin and warmed to 37° C. prior to use. The cells were passaged by first washing briefly with 5 mL Phosphate buffered saline (PBS), followed by addition of 2 mL of Trypsin Ethylenediaminetetraacetic acid (EDTA) to detach the cells. Once cells had detached from the flask, 8 mL media was then added to and the cells dispersed via pipetting against the bottom of the flask.
The cells were counted and diluted to 3×10^5 cells/mL in fresh media. Two T75 flasks were each seeded with 15.6 mL diluted cells, cells were also subcultured at a ratio of between 1:2 and 1:10, to continue the stock. The flasks were then incubated for 24 h at 37° C. and 5% CO2.
The plasmid DNA (for pFR-Luc and pcDNA3.1_Gal4/NFKB) to be transfected into the HEK 293T cells was first prepared in serum free media (Opti-MEM, Invitrogen), containing the transfection reagent FuGENE® 6 (Promega). Serum free media was placed in a 1.5 mL eppendorf tube then the FuGENE 6 was added into the media. The tube was vortexed for 1 s before being incubated at RT for 5 min. 7.79 ng of both pFR_luc and pCDNA3.1_A2_F plasmid DNA were added to tube 1 and 7.79 ng of pCDNA3.1_GAL4-NF-κB plasmid to tube 2. The tubes were vortexed for 1 second and then incubated at room temperature for 15 min. Each transfection mixture was then added into the media of one of the T75 flasks of 293T cells. Cells were cultured for 24 h at 37° C., 5% CO2 in a humidified incubator.
Compounds were diluted (in a polypropylene round-bottomed 96 well plate) 1:3 in a twelve point dilution curve to give top [final] of either 25 μM, 3 μM, 1 μM or 500 nM. A control compound was included in every assay at a top concentration of 3 μM. Transfected cells were counted and diluted to 4×10^5 cells/mL in fresh media. 50 μL of transfection population 1 were added to all wells of the 96 well flat bottom white opaque assay plates. 100 μL diluted compound (2 rows per compound), control compound (one row) and controls (DMSO (0% inhibition, four wells), 3 μM positive control (100% inhibition, four wells) and media (transfection population 1 only, four wells) were added to the appropriate wells. 50 μL of the diluted (4×10^5 cells/mL) population 2 cells when then added to all wells, except the four wells of transfection population 1 only where an extra 50 μL of this cells population was added.
The plates were then incubated for 24 h at 37° C. and 5% CO2. After this time, 100 μL was removed from all wells and 60 μL of ONE-Glo™ (Promega) reagent, pre-equilibrated to room temperature, was added. Plates were then incubated for 3 min at room temperature before luminescence was read, using the ONE-Glo protocol, on the GloMax Explorer System (Promega) multimode reader. Analysis was carried out in Dotmatics software. All raw data were background subtracted (subtraction of mean 3 μM positive control value), before IC50 calculation.

A further test relates to RSV A2 VR-1540. Nature of the test: RSV plaque reduction assay, typical conditions (HEp-2 cells). As to conditions: human respiratory syncytial virus. The method, then:
The plaque reduction assay was typically performed as follows. HEp-2 cells (ATCC, CCL23) were passaged in flasks and seeded in 96-well plates in DMEM containing antibiotics and supplemented with 10% FBS. During inoculation and subsequent incubation, cells were cultured in DMEM containing 3% FBS. 100 plaque forming unit (PFU)/well of RSV (RSV A2 VR-1540) was mixed with ten serial dilutions of compound. Subsequently, 100 μL of the virus/compound mixtures was added to confluent HEp-2 cell monolayers. The cells and virus/compound mixtures were incubated at 35° C. in a humidified 5% CO2 incubator for 1 day.
Cells were washed twice with PBS before adding 50% v % v EtOH/MeOH, and then stored at −20° C. On the day of the staining, fixative was first removed from the plates. Plates were washed 3× with PBS. A pre-titrated amount of the primary antibody was added in 60 μL PBS/2% milk powder, and plates incubated for 1 h at rt. The plates were washed 3× with PBS/0.05% Tween20 before addition of goat anti-mouse horse radish peroxidase in 60 μL PBS/2% milk powder, and incubated for 1 h at rt. Following three wash steps with PBS/0.05% Tween20, 60 μL ready-to-use TrueBlue was added and plates were incubated at it for 10-15 min before adding MilliQ water. Plates were washed once with water, incubated for 30-60 min and after removal of water, air-dried in the dark.
(§1) Plates were scanned and analyzed using the Immunospot S6 UV analyzer, which is equipped with BioSpot analysis software for counting immunostained plaques (virospots). Plaque counts were used to calculate % infection relative to the mean of the spot count (SC) in the virus control wells for RSV. IC50/IC90 values were calculated as 50% or 90% reduction in signal, respectively, by interpolation of inhibition curves fitted with a 4-parameter nonlinear regression with a variable slope in GraphPad 5.0 (Prism). Alternatively, where noted the plaque reduction assay was performed as follows. Hep G2 cells (ECACC, 85011430) were passaged in flasks and seeded in 12-well plates in DMEM containing antibiotics and supplemented with 10% FBS, 24 h prior to inoculation. During inoculation and subsequent incubation, cells were cultured in DMEM containing 2% FBS. 75 plaque forming unit (PFU)/well of RSV (RSV A2, 0709161v) was mixed with 8 serial dilutions of compound. Subsequently, 200 μL of the virus/compound mixtures was added to confluent Hep G2 cell monolayers, for a 2 h infection, with manual shaking every 15 min. Infectious supernatant was then removed and replaced with 2 mL of overlay, comprising 4 parts of DMEM+2% FBS and 1 part 4% CMC, with 0.25% DMSO. The cells were incubated at 37° C. in a humidified 5% CO2 incubator for 5 days.

The subject of the next test is RSV A2, 0709161v. Nature of the test: RSV plaque reduction assay, alternative conditions (Hep G2 cells). As to conditions: human respiratory syncytial virus, HepG2, mean of at least 2 independent experiments, read-out: RSV Plaque Reduction Assay Strain A2 IC50. On the procedure:
as §1
Overlay was removed, and cells were washed with PBS before fixing with a mixture of 75% acetone 25% methanol for 3 minutes and replacing with fresh PBS. […] Staining was carried out whilst shaking at 37° C. First the plates were blocked with 500 uL PBS-T/2% milk powder per well, for 1 hr. This was then replaced with 250 uL PBS-T/2% milk powder containing a pre-titrated amount of the primary antibody (ab1128), for 90 min. The plates were washed 3×5 min with PBS-T, before addition of rabbit anti-goat horse radish peroxidase (AP106P) in 250 μL PBS-T/2% milk powder, and incubated for 1 hr. […]
Plates were scanned and analysed using the Immunospot S6 Macro analyzer, which is equipped with BioSpot analysis software for counting immunostained plaques. […]

Usually pIC50 stands for −log10 of the IC50, conventionally taken in molar units. As usually defined, the IC90 is the concentration at which the effect reaches the 90% level. In the case of `CS(=O)(=O)N1CCN(CCCn2c(CN3C(=O)C(F)(F)c4ccccc43)nc3cc(Cl)ccc32)CC1` [Compound 2, 1-({5-Chloro-1-[3-(4-methanesulfonylpiperazin-1-yl)propyl]-1H-1,3-benzodiazol-2-yl}methyl)-3,3-difluoro-2,3-dihydro-1H-indol-2-one], the pIC50 was 7.80 in test [1] and 8.30 with RSV A2 VR-1540 (†: typical protocol, n = 1, read-out: RSV Plaque Reduction Assay Strain A2 IC50). Moreover, the IC90 with RSV A2 VR-1540 (typical protocol, read-out: RSV Plaque Reduction Assay Strain A2 IC90) was found to be 35 nM.
On to `CS(=O)(=O)N1CCC(n2c(CN3C(=O)C(F)(F)c4ccccc43)nc3cc(Cl)ccc32)CC1` [Compound 8, 1-{[5-Chloro-1-(1-methanesulfonylpiperidin-4-yl)-1H-1,3-benzodiazol-2-yl]methyl}-3,3-difluoro-2,3-dihydro-1H-indol-2-one], for which the pIC50 was 8.77 in test [1] and 8.46 in the test on RSV A2, 0709161v.
